Assay results as given in patent US20190388425A1, “SUBSTITUTED IMIDAZOPYRIDINPYRIMIDINES” (Bayer Pharma Aktiengesellschaft, priority 2017, published 2019).

target: T1, human full-length MKNK1 (Homo sapiens, UniProt Q9BUB5, T385D); assay: MKNK1 kinase high ATP assay (TR-FRET); format: biochemical; details: TR-FRET, 2 mM ATP (high ATP), 15 min preincubation with enzyme, 30 min reaction at 22° C.; read-out: MKNK1 IC50
T1 construct: GST (N); purchased Carna Biosciences 02-145; host or cells: insect cells (baculovirus expression system)
T1 sequence (Q9BUB5 1-424 isoform Q9BUB5-2 T344D): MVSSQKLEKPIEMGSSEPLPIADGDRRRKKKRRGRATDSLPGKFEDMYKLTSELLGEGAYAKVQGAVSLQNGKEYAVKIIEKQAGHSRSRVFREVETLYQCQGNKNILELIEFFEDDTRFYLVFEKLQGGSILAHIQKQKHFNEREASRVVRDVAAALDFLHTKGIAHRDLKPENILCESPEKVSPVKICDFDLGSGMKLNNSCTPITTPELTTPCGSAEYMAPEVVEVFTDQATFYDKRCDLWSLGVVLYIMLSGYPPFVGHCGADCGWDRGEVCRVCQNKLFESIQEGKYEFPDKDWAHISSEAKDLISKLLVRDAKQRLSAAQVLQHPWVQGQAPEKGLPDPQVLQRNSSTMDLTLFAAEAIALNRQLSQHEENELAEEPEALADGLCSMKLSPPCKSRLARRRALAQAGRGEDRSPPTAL
How it was run: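 Full-length human MKNK1 (T385D) preincubated 15 min at 22 °C with compound in HEPES pH 7.5/MgCl2/DTT buffer; reaction with 2 mM ATP (final) and 0.06 μM biotinylated peptide (final), 30 min at 22 °C.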

Row | IC50 [nM] | SMILES
1 | 1.8 | O=C1NC2(CSC2)n2c1c(Cl)cc(Nc1ncnc3sc4c(c13)CC[C@H](C(=O)O)C4)c2=O [Example 101, (7S)-4-[(8-Chloro-1,5-dioxo-1,5-dihydro-2H-spiro[imidazo[1,5-a]pyridine-3,3′-thietan]-6-yl)amino]-5,6,7,8-tetrahydro[1]benzothieno[2,3-d]pyrimidine-7-carboxylic acid]
2 | 0.2 | CN(C)C(=O)[C@H]1CCc2c(sc3ncnc(Nc4cc(Cl)c5n(c4=O)C4(CSC4)NC5=O)c23)C1 [Example 102, (7S)-4-[(8-Chloro-1,5-dioxo-1,5-dihydro-2H-spiro[imidazo[1,5-a]pyridine-3,3′-thietan]-6-yl)amino]-N,N-dimethyl-5,6,7,8-tetrahydro[1]benzothieno[2,3-d]pyrimidine-7-carboxamide]
3 | 0.2 | O=C1NC2(CSC2)n2c1c(Cl)cc(Nc1ncnc3sc4c(c13)CC[C@H](C(=O)N1CCC1)C4)c2=O [Example 103, 6-{[(7S)-7-(Azetidine-1-carbonyl)-5,6,7,8-tetrahydro[1]benzothieno[2,3-d]pyrimidin-4-yl]amino}-8-chloro-2H-spiro[imidazo[1,5-a]pyridine-3,3′-thietane]-1,5-dione]
4 | 0.2 | N#CC1CN(C(=O)[C@H]2CCc3c(sc4ncnc(Nc5cc(Cl)c6n(c5=O)C5(CSC5)NC6=O)c34)C2)C1 [Example 104, 1-{(7S)-4-[(8-Chloro-1,5-dioxo-1,5-dihydro-2H-spiro[imidazo[1,5-a]pyridine-3,3′-thietan]-6-yl)amino]-5,6,7,8-tetrahydro[1]benzothieno[2,3-d]pyrimidine-7-carbonyl}azetidine-3-carbonitrile]
5 | 0.1 | CN(C)[C@H]1CCN(C(=O)[C@H]2CCc3c(sc4ncnc(Nc5cc(Cl)c6n(c5=O)C5(CSC5)NC6=O)c34)C2)C1 [Example 105, 8-Chloro-6-({(7S)-7-[(3S)-3-(dimethylamino)pyrrolidine-1-carbonyl]-5,6,7,8-tetrahydro[1]benzothieno[2,3-d]pyrimidin-4-yl}amino)-2H-spiro[imidazo[1,5-a]pyridine-3,3′-thietane]-1,5-dione]
6 | 0.3 | C[C@@H]1COCCN1C(=O)[C@H]1CCc2c(sc3ncnc(Nc4cc(Cl)c5n(c4=O)C4(CSC4)NC5=O)c23)C1 [Example 106, 8-Chloro-6-({(7S)-7-[(3R)-3-methylmorpholine-4-carbonyl]-5,6,7,8-tetrahydro[1]benzothieno[2,3-d]pyrimidin-4-yl}amino)-2H-spiro[imidazo[1,5-a]pyridine-3,3′-thietane]-1,5-dione]
7 | 0.2 | C[C@@H]1CN(C(=O)[C@H]2CCc3c(sc4ncnc(Nc5cc(Cl)c6n(c5=O)C5(CSC5)NC6=O)c34)C2)CCN1C [Example 107, 8-Chloro-6-({(7S)-7-[(3R)-3,4-dimethylpiperazine-1-carbonyl]-5,6,7,8-tetrahydro[1]benzothieno[2,3-d]pyrimidin-4-yl}amino)-2H-spiro[imidazo[1,5-a]pyridine-3,3′-thietane]-1,5-dione]
8 | 0.8 | O=C1NC2(CSC2)n2c1c(Cl)cc(Nc1ncnc3sc4c(c13)CC[C@H](C(=O)N1C[C@H]3C[C@@H]1CO3)C4)c2=O [Example 108, 8-Chloro-6-({(7S)-7-[(1R,4R)-2-oxa-5-azabicyclo[2.2.1]heptane-5-carbonyl]-5,6,7,8-tetrahydro[1]benzothieno[2,3-d]pyrimidin-4-yl}amino)-2H-spiro[imidazo[1,5-a]pyridine-3,3′-thietane]-1,5-dione]
9 | 26.7 | CC1(C)NC(=O)c2c(Cl)cc(Nc3ncnc4sc5c(c34)CC[C@H](C(=O)O)C5)c(=O)n21 [Example 109, (7S)-4-[(8-Chloro-3,3-dimethyl-1,5-dioxo-1,2,3,5-tetrahydroimidazo[1,5-a]pyridin-6-yl)amino]-5,6,7,8-tetrahydro[1]benzothieno[2,3-d]pyrimidine-7-carboxylic acid]
10 | 1.2 | CC1(C)NC(=O)c2c(Cl)cc(Nc3ncnc4sc5c(c34)CC[C@H](C(N)=O)C5)c(=O)n21 [Example 110, (7S)-4-[(8-Chloro-3,3-dimethyl-1,5-dioxo-1,2,3,5-tetrahydroimidazo[1,5-a]pyridin-6-yl)amino]-5,6,7,8-tetrahydro[1]benzothieno[2,3-d]pyrimidine-7-carboxamide]
11 | 0.3 | CN(C)C(=O)[C@H]1CCc2c(sc3ncnc(Nc4cc(Cl)c5n(c4=O)C(C)(C)NC5=O)c23)C1 [Example 111, (7S)-4-[(8-Chloro-3,3-dimethyl-1,5-dioxo-1,2,3,5-tetrahydroimidazo[1,5-a]pyridin-6-yl)amino]-N,N-dimethyl-5,6,7,8-tetrahydro[1]benzothieno[2,3-d]pyrimidine-7-carboxamide]
12 | 0.2 | CC1(C)NC(=O)c2c(Cl)cc(Nc3ncnc4sc5c(c34)CC[C@H](C(=O)N3CCC3)C5)c(=O)n21 [Example 112, 6-{[(7S)-7-(Azetidine-1-carbonyl)-5,6,7,8-tetrahydro[1]benzothieno[2,3-d]pyrimidin-4-yl]amino}-8-chloro-3,3-dimethyl-2,3-dihydroimidazo[1,5-a]pyridine-1,5-dione]
13 | 0.2 | CC1(C)NC(=O)c2c(Cl)cc(Nc3ncnc4sc5c(c34)CC[C@H](C(=O)N3CC(C#N)C3)C5)c(=O)n21 [Example 113, 1-{(7S)-4-[(8-Chloro-3,3-dimethyl-1,5-dioxo-1,2,3,5-tetrahydroimidazo[1,5-a]pyridin-6-yl)amino]-5,6,7,8-tetrahydro[1]benzothieno[2,3-d]pyrimidine-7-carbonyl}azetidine-3-carbonitrile]
14 | < 0.1 | CN(C)[C@H]1CCN(C(=O)[C@H]2CCc3c(sc4ncnc(Nc5cc(Cl)c6n(c5=O)C(C)(C)NC6=O)c34)C2)C1 [Example 114, 8-Chloro-6-({(7S)-7-[(3S)-3-(dimethylamino)pyrrolidine-1-carbonyl]-5,6,7,8-tetrahydro[1]benzothieno[2,3-d]pyrimidin-4-yl}amino)-3,3-dimethyl-2,3-dihydroimidazo[1,5-a]pyridine-1,5-dione]
15 | 0.2 | C[C@@H]1CN(C(=O)[C@H]2CCc3c(sc4ncnc(Nc5cc(Cl)c6n(c5=O)C(C)(C)NC6=O)c34)C2)CCN1C [Example 115, 8-Chloro-6-({(7S)-7-[(3R)-3,4-dimethylpiperazine-1-carbonyl]-5,6,7,8-tetrahydro[1]benzothieno[2,3-d]pyrimidin-4-yl}amino)-3,3-dimethyl-2,3-dihydroimidazo[1,5-a]pyridine-1,5-dione]
16 | 0.3 | CC1(C)NC(=O)c2c(Cl)cc(Nc3ncnc4sc5c(c34)CC[C@H](C(=O)N3C[C@H]4C[C@@H]3CO4)C5)c(=O)n21 [Example 116, 8-Chloro-3,3-dimethyl-6-({(7S)-7-[(1R,4R)-2-oxa-5-azabicyclo[2.2.1]heptane-5-carbonyl]-5,6,7,8-tetrahydro[1]benzothieno[2,3-d]pyrimidin-4-yl}amino)-2,3-dihydroimidazo[1,5-a]pyridine-1,5-dione]
17 | 0.4 | C[C@@H]1COCCN1C(=O)[C@H]1CCc2c(sc3ncnc(Nc4cc(Cl)c5n(c4=O)C(C)(C)NC5=O)c23)C1 [Example 117, 8-chloro-3,3-dimethyl-6-({(7S)-7-[(3R)-3-methylmorpholine-4-carbonyl]-5,6,7,8-tetrahydro[1]benzothieno[2,3-d]pyrimidin-4-yl}amino)-2,3-dihydroimidazo[1,5-a]pyridine-1,5-dione]
18 | 0.4 | O=C1NC2(CCC2)n2c1c(Cl)cc(Nc1ncnc3sc4c(c13)CC[C@H](C(=O)N1C[C@H]3C[C@@H]1CO3)C4)c2=O [Example 118, 8′-chloro-6′-({(7S)-7-[(1R,4R)-2-oxa-5-azabicyclo[2.2.1]heptan-5-ylcarbonyl]-5,6,7,8-tetrahydro[1]benzothieno[2,3-d]pyrimidin-4-yl}amino)-2′H-spiro[cyclobutane-1,3′-imidazo[1,5-a]pyridine]-1′,5′-dione]
19 | 0.9 | NC(=O)[C@H]1CCc2c(sc3ncnc(Nc4cc(Cl)c5n(c4=O)C4(CSC4)NC5=O)c23)C1 [Example 119, (7S)-4-[(8-chloro-1,5-dioxo-1,5-dihydro-2H-spiro[imidazo[1,5-a]pyridine-3,3′-thietan]-6-yl)amino]-5,6,7,8-tetrahydro[1]benzothieno[2,3-d]pyrimidine-7-carboxamide]
